Source: patent publication US11878973B2, “Bicyclic compounds and their uses” (NOVARTIS AG, priority 2021, dated 2024)
pIC50: −log10 of the molar value. Like-named read-outs stand apart in the source and are kept apart here.

Legend:
SW48 xenografts = conditions: 240 mg/kg qd oral
SW48 cells = assay: Proliferation assay SW48 (CellTiterGlo, 96 hours)
Method: (§1) The WRN-knockdown insensitive colon carcinoma cell line DLD-1 (RRID: CVCL_0248) was obtained from the Korean Cell Line Bank (KCLB), and used to generate a derivative in which the endogenous WRN gene copies were knocked out by CRISPR-mediated editing using standard CRISPR methods. The resulting cell line, DLD1-WRN—KO, was used to assess potential off-target compound effects.
(§2) All cells were maintained at 37° C. in a humidified 5% CO2 incubator.
(§3) For data analysis, the assay background signal that was determined in wells containing medium, but no cells, was subtracted from all other data points prior to further calculations. The extent of growth inhibition and potential cell kill was assessed by comparing the ATP levels (measured using CellTiterGlo, Promega) in compound-treated cells with those present at the time of compound addition. […] 100%, 0% and −100% signify absence of growth inhibition, growth stasis, and complete cell kill, respectively. Compound concentrations leading to half-maximal growth inhibition (G150) and residual cell viability at the highest tested compound concentration (Data (cmax), expressed in percent) were routinely calculated. Data analysis can also be carried out using commercially available software designed to derive IC50 values using 4-parameter fits (e.g. GraphPad Prism, XL fit). The reported GI50 values are the geometrical means of at least 2 independent replicates.

WRN helicase = WRN helicase (Homo sapiens (Human), UniProt Q14191); assay: In vitro enzymatic activity assay on WRN helicase (DNA dependent ATPase assay, ADP-Glo); format: biochemical; conditions: geometric means of at least 2 determinations; read-out: WRN ATPase Activity (IC50)
Chain of WRN helicase (Q14191 517-1238): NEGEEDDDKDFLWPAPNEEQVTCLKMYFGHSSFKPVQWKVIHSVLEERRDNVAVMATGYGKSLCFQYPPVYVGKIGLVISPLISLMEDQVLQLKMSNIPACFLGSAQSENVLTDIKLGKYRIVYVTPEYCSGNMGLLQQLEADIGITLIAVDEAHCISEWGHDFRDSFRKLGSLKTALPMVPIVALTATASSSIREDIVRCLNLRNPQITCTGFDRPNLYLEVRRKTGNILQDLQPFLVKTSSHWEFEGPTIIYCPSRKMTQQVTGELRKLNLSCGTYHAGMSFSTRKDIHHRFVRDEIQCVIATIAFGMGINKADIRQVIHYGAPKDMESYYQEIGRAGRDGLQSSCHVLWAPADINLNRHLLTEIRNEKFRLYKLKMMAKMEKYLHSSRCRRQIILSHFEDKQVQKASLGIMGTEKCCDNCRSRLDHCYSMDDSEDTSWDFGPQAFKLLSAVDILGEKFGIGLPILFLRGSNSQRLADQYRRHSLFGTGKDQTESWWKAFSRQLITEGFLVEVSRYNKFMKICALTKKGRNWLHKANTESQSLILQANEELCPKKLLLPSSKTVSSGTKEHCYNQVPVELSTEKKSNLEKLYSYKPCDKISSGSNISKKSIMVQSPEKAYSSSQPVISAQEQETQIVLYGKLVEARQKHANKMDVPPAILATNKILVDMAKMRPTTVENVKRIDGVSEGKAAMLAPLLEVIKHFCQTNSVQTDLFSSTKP
Procedure, shortened: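 DNA-dependent ATPase activity was measured by ADP-Glo luminescent ADP detection after a 30-min room-temperature reaction. The reaction contained 10 nM WRN (residues N517-P1238), 0.2 nM FLAP26 and 300 µM ATP at pH 7.5 with 2 mM MgCl2. Compounds were tested as 10-point half-log series in duplicate; IC50 values are geometric means from at least two independent experiments.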

DLD1-WRN-KO cells = assay: Proliferation assay DLD1-WRN-KO (CellTiterGlo, 96 hours; off-target effects); conditions: read-out: Proliferation Assay DLD1-WRN-KO (GI50)
Method: as §1, §2, §3

[1] = Homo sapiens, SW48, read-out: Proliferation Assay SW48 (GI50)

Structure (SMILES)	GI50 (SW48 cells; [1])	pIC50 (WRN helicase)	GI50 (DLD1-WRN-KO cells; Homo sapiens)	GI50 (SW48 cells; read-out: Proliferation Assay SW48 (GI50), SW48 cell line, geometric means of at least 2 determinations)	GI50 (DLD1-WRN-KO cells; DLD1-WRN-KO cell line, geometric means of at least 2 determinations)	antitumor response (SW48 xenografts; SW48 xenografts in nude mice)	T/C % value (SW48 xenografts; day 18, SW48 xenografts in nude mice, p<0.05 vs vehicle)	tumor regression (mean tumor volume) (SW48 xenografts; day 18, in the 4/7 surviving animals)
CCc1c(N2CCN(C(=O)c3ncccc3O)CC2)c(=O)n2nc(C3=CCOCC3)nc2n1CC(=O)Nc1ccc(C(F)(F)F)cc1C [Example 58, 2-(2-(3,6-dihydro-2H-pyran-4-yl)-5-ethyl-6-(4-(3-hydroxypicolinoyl)piperazin-1-yl)-7-oxo-[1,2,4]triazolo[1,5-a]pyrimidin-4(7H)-yl)-N-(2-methyl-4-(trifluoromethyl)phenyl)acetamide]						induced an antitumor response	−9%	−26%
CCc1c(N2CCN(C(=O)c3ncnc(C)c3O)CC2)c(=O)n2nc(C3=CCOCC3)nc2n1CC(=O)Nc1ccc(C(F)(F)F)cc1C [Example 57, 2-(2-(3,6-dihydro-2H-pyran-4-yl)-5-ethyl-6-(4-(5-hydroxy-6-methylpyrimidine-4-carbonyl)piperazin-1-yl)-7-oxo-[1,2,4]triazolo[1,5-a]pyrimidin-4(7H)-yl)-N-(2-methyl-4-(trifluoromethyl)phenyl)acetamide]	100 nM	7.00	> 10000 nM					
CCc1c(N2CCN(C(=O)c3ncccc3O)CC2)c(=O)n2nc(C3=CCOCC3)nc2n1CC(=O)Nc1ccc(C(F)(F)F)nc1C [Example 35, 2-(2-(3,6-dihydro-2H-pyran-4-yl)-5-ethyl-6-(4-(3-hydroxypicolinoyl)piperazin-1-yl)-7-oxo-[1,2,4]triazolo[1,5-a]pyrimidin-4(7H)-yl)-N-(2-methyl-6-(trifluoromethyl)pyridin-3-yl)acetamide]	400 nM	6.72	> 10000 nM					
CCc1c(N2CCN(C(=O)c3ncccc3O)CC2)c(=O)n2nc(C3=CC(=O)OCC3)nc2n1CC(=O)Nc1ccc(C(F)(F)F)cc1C [Example 60, 2-(5-ethyl-6-(4-(3-hydroxypicolinoyl)piperazin-1-yl)-7-oxo-2-(6-oxo-3,6-dihydro-2H-pyran-4-yl)-[1,2,4]triazolo[1,5-a]pyrimidin-4(7H)-yl)-N-(2-methyl-4-(trifluoromethyl)phenyl)acetamide]	880 nM	6.62	> 10000 nM					
CCc1c(N2CCN(C(=O)c3ncccc3O)CC2)c(=O)n2nc(N3CCCC(F)C3)nc2n1CC(=O)Nc1ccc(C(F)(F)F)cc1Cl (racemic) [Example 15, rac-N-(2-chloro-4-(trifluoromethyl)phenyl)-2-(5-ethyl-2-(3-fluoropiperidin-1-yl)-6-(4-(3-hydroxypicolinoyl)piperazin-1-yl)-7-oxo-[1,2,4]triazolo[1,5-a]pyrimidin-4(7H)-yl)acetamide]	440 nM	6.96	> 10000 nM					
CCc1c(N2CCN(C(=O)c3nccc(Cl)c3O)CC2)c(=O)n2nc(C3=CCOCC3)nc2n1CC(=O)Nc1ccc(C(F)(F)F)nc1C [Example 36, 2-(6-(4-(4-chloro-3-hydroxypicolinoyl)piperazin-1-yl)-2-(3,6-dihydro-2H-pyran-4-yl)-5-ethyl-7-oxo-[1,2,4]triazolo[1,5-a]pyrimidin-4(7H)-yl)-N-(2-methyl-6-(trifluoromethyl)pyridin-3-yl)acetamide]	1780 nM	6.03	> 10000 nM					

More lines, in order of rising pIC50 (WRN helicase), values ahead:

GI50 (SW48 cells; [1])	pIC50 (WRN helicase)	GI50 (DLD1-WRN-KO cells; Homo sapiens)	GI50 (SW48 cells; read-out: Proliferation Assay SW48 (GI50), SW48 cell line, geometric means of at least 2 determinations)	GI50 (DLD1-WRN-KO cells; DLD1-WRN-KO cell line, geometric means of at least 2 determinations)	Structure (SMILES)	antitumor response (SW48 xenografts; SW48 xenografts in nude mice)	T/C % value (SW48 xenografts; day 18, SW48 xenografts in nude mice, p<0.05 vs vehicle)	tumor regression (mean tumor volume) (SW48 xenografts; day 18, in the 4/7 surviving animals)
1130 nM	6.70	> 10000 nM			Cc1cc(Cl)ccc1NC(=O)Cn1c(C)c(N2CCN(C(=O)c3ncccc3O)CC2)c(=O)n2nc(C3=CCOCC3)nc12 [Example 105, N-(4-chloro-2-methylphenyl)-2-(2-(3,6-dihydro-2H-pyran-4-yl)-6-(4-(3-hydroxypicolinoyl)piperazin-1-yl)-5-methyl-7-oxo-[1,2,4]triazolo[1,5-a]pyrimidin-4(7H)-yl)acetamide]			
300 nM	6.89	> 10000 nM			Cc1ccnc(C(=O)N2CCN(c3c(C)n(CC(=O)Nc4ccc(C(F)(F)F)cc4)c4nc(C5=CCOCC5)nn4c3=O)CC2)c1O [Example 90, 2-(2-(3,6-dihydro-2H-pyran-4-yl)-6-(4-(3-hydroxy-4-methylpicolinoyl)piperazin-1-yl)-5-methyl-7-oxo-[1,2,4]triazolo[1,5-a]pyrimidin-4(7H)-yl)-N-(4-(trifluoromethyl)phenyl)acetamide]			
550 nM	6.89	> 10000 nM			CCc1c(N2CCN(C(=O)c3ncccc3O)CC2)c(=O)n2nc(N3CCOCC3)nc2n1CC(=O)Nc1cc(C(F)(F)F)c(Cl)cc1C [Example 12, N-(4-chloro-2-methyl-5-(trifluoromethyl)phenyl)-2-(5-ethyl-6-(4-(3-hydroxypicolinoyl)piperazin-1-yl)-2-morpholino-7-oxo-[1,2,4]triazolo[1,5-a]pyrimidin-4(7H)-yl)acetamide]			
	6.96		40 nM	> 10000 nM	CCc1c(N2CCN(C(=O)c3nccc(Cl)c3O)CC2)c(=O)n2nc(C3=CC[C@H](OC)CC3)nc2n1CC(=O)Nc1ccc(C(F)(F)F)nc1Cl (single isomer, unassigned) [Example 24a]			
220 nM	7.00	> 10000 nM			CCc1c(N2CCN(C(=O)c3ncccc3O)CC2)c(=O)n2nc(C3=CCOCC3)nc2n1CC(=O)Nc1cc(F)c(C(F)(F)F)nc1C [Example 70, 2-(2-(3,6-dihydro-2H-pyran-4-yl)-5-ethyl-6-(4-(3-hydroxypicolinoyl)piperazin-1-yl)-7-oxo-[1,2,4]triazolo[1,5-a]pyrimidin-4(7H)-yl)-N-(5-fluoro-2-methyl-6-(trifluoromethyl)pyridin-3-yl)acetamide]			
70 nM	7.10	> 10000 nM			CCc1c(N2CCN(C(=O)c3ncc(C)c(F)c3O)CC2)c(=O)n2nc(C3=CCOCC3)nc2n1CC(=O)Nc1ccc(C(F)(F)F)cc1Cl [Example 97, N-(2-chloro-4-(trifluoromethyl)phenyl)-2-(2-(3,6-dihydro-2H-pyran-4-yl)-5-ethyl-6-(4-(4-fluoro-3-hydroxy-5-methylpicolinoyl)piperazin-1-yl)-7-oxo-[1,2,4]triazolo[1,5-a]pyrimidin-4(7H)-yl)acetamide]			
